What is called IC50 is the concentration that inhibits the measured activity by half.

Molecules are shown by their SMILES.

One series addresses Cytochrome P450 3A4 (Homo sapiens, UniProt P08684). Nature of the series: Inhibition of human recombinant CYP3A4 in presence of reduced glutathione. Type of series: ADME. As to conditions: recombinant enzyme; call rule not given here.
Series [1] has as its target T1, Cytochrome P450 2C9 (Homo sapiens, UniProt P11712). Description: Inhibition of human recombinant CYP2C9 in presence of reduced glutathione. Type of series: ADME. To be noted: recombinant enzyme.
A further series concerns the target T2, Cytochrome P450 2B6 (Homo sapiens, UniProt P20813).
T2 sequence (P20813 whole entry): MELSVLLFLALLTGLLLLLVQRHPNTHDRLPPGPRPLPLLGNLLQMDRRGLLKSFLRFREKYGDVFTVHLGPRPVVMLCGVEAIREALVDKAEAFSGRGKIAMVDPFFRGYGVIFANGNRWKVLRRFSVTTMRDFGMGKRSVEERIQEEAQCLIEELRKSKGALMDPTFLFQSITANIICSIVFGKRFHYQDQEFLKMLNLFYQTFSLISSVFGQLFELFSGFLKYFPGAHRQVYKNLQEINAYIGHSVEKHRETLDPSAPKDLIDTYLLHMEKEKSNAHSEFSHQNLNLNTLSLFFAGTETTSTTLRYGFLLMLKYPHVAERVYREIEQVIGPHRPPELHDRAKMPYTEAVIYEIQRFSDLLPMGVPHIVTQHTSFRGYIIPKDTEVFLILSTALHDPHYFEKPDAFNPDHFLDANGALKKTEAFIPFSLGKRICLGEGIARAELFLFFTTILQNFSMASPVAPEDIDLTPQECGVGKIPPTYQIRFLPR
Nature of the series: Inhibition of human recombinant CYP2B6 in presence of reduced glutathione. Type of series: ADME. To be noted: recombinant enzyme.

For a further series, the target named is Cytochrome P450 2D6 (Homo sapiens, UniProt P10635). Nature of the series: Inhibition of human recombinant CYP2D6 in presence of reduced glutathione. Type of series: ADME. As to conditions: recombinant enzyme.
Sequence of Cytochrome P450 2D6 (P10635 whole entry): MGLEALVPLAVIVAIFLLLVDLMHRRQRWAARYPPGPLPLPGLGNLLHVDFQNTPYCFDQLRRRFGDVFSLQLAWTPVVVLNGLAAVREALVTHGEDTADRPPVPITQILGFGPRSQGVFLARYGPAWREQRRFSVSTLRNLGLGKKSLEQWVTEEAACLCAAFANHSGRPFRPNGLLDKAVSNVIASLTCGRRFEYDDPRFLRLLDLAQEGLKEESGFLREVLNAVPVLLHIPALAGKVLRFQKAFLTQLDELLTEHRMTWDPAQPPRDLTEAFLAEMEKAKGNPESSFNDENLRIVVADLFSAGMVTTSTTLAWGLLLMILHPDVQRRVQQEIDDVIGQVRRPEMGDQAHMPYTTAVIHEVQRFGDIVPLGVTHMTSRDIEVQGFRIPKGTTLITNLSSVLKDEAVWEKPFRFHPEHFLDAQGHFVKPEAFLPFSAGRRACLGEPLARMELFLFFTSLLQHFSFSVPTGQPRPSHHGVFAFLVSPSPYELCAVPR
The next series addresses T3, Cytochrome P450 1A2 (Homo sapiens, UniProt P05177).
T3 sequence (P05177 whole entry): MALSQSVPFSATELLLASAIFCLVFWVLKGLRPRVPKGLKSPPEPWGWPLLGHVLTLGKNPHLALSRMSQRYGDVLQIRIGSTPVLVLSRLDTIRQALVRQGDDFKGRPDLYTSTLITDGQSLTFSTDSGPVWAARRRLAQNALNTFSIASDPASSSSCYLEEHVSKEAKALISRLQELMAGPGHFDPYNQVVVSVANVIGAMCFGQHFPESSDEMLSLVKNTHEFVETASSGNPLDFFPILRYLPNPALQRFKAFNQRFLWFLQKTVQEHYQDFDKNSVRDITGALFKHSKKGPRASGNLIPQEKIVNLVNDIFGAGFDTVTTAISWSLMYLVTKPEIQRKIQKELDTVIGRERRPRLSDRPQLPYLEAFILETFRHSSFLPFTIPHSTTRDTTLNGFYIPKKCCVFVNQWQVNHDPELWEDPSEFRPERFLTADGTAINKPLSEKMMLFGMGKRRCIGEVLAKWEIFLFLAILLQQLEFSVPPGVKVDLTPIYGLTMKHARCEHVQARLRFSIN
Nature of the series: Inhibition of human recombinant CYP1A2. As to conditions: for log(1/IC50): human, recombinant CYP1A2.

Series [2] deals with T1, Cytochrome P450 2C9. Nature of the series: Inhibition of human recombinant CYP2C9. Type of series: ADME.

T1 sequence (P11712 whole entry): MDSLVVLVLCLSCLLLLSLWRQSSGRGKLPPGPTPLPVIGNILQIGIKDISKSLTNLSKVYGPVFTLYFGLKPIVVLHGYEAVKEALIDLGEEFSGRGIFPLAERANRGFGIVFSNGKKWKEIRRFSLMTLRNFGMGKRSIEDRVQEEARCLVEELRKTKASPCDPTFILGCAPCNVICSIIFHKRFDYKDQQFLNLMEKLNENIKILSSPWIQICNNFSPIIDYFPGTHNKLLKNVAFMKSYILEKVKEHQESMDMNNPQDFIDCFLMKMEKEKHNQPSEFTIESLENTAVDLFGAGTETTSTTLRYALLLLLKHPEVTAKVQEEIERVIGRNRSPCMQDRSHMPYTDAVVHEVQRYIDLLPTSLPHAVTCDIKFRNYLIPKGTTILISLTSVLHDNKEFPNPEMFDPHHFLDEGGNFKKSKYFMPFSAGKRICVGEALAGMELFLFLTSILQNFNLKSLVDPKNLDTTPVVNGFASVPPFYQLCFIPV
Sequence of Cytochrome P450 3A4 (P08684 whole entry): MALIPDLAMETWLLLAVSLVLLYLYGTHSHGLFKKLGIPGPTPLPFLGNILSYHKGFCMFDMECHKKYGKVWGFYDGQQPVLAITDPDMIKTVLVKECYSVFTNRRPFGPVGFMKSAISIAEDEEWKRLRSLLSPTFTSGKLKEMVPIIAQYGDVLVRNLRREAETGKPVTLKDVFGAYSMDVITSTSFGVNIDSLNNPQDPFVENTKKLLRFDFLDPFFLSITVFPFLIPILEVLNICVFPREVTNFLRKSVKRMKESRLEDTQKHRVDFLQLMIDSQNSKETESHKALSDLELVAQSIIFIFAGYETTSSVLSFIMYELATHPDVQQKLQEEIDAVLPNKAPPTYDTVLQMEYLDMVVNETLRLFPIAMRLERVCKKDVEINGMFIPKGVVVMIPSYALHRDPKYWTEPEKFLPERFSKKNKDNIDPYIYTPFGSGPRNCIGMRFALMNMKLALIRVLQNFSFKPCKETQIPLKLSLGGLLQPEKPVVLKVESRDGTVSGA

For `O=C1/C(=C/c2ccccc2)CC/C1=C\c1ccccc1`, the Activity result at Cytochrome P450 3A4, on Cytochrome P450 2C9 [1], on Cytochrome P450 2B6 and at Cytochrome P450 2D6 was “Not Active” in each case. Besides, at Cytochrome P450 1A2, the IC50 was found to be 36.6 µM. Moreover, the “log(1/IC50)” value on Cytochrome P450 1A2 was 1.437.
On to `CN(C)c1ccc(/C=C2\CC/C(=C\c3ccc(N(C)C)cc3)C2=O)cc1`, for which the Activity entry on Cytochrome P450 3A4, on Cytochrome P450 2C9 [1], on Cytochrome P450 2B6 and on Cytochrome P450 2D6 was “Not Active” each time.
On to `O=C(/C=C/c1ccc(Cl)c(Cl)c1)/C=C/c1ccc(Cl)c(Cl)c1`, for which the Activity entry at Cytochrome P450 3A4, at Cytochrome P450 2C9 [1], on Cytochrome P450 2B6 and at Cytochrome P450 2D6 was “Not Active” throughout.
Consider `O=C(/C=C/c1ccc(Cl)cc1)/C=C/c1ccc(Cl)cc1`, for which the Activity entry on Cytochrome P450 3A4, at Cytochrome P450 2C9 [1], at Cytochrome P450 2B6 and at Cytochrome P450 2D6 was “Not Active” each time. Further, the IC50 at Cytochrome P450 1A2 was determined as 26.6 µM. For the same compound, the “log(1/IC50)” value on Cytochrome P450 1A2 stood at 1.575.
With `Cc1ccc(/C=C/C(=O)/C=C/c2ccc(C)cc2)cc1`, the Activity entry on Cytochrome P450 3A4, on Cytochrome P450 2C9 [1], on Cytochrome P450 2B6 and at Cytochrome P450 2D6 was “Not Active” each time.
On to `O=C1/C(=C/c2ccc(Cl)cc2)CC/C1=C\c1ccc(Cl)cc1`, for which the Activity result at Cytochrome P450 3A4, on Cytochrome P450 2C9 [1], on Cytochrome P450 2B6 and at Cytochrome P450 2D6 was “Not Active” each time.
`O=C1/C(=C/c2ccc(Cl)c(Cl)c2)CC/C1=C\c1ccc(Cl)c(Cl)c1`: the Activity entry on Cytochrome P450 3A4, at Cytochrome P450 2C9 [1], on Cytochrome P450 2B6 and at Cytochrome P450 2D6 was “Not Active” each time.
Consider `Cc1cc(/C=C2\CC/C(=C\c3cc(C)c(O)c(C)c3)C2=O)cc(C)c1O`, for which the Activity entry at Cytochrome P450 3A4, at Cytochrome P450 2C9 [1], on Cytochrome P450 2B6 and at Cytochrome P450 2D6 was “Not Active” in each case. Also, the half-inhibitory concentration (IC50) at Cytochrome P450 2C9 [2] turned out to be 28.3 µM.
For the compound `O=C(/C=C/c1cccc(Cl)c1)/C=C/c1cccc(Cl)c1`, the Activity entry on Cytochrome P450 3A4, at Cytochrome P450 2C9 [1], on Cytochrome P450 2B6 and on Cytochrome P450 2D6 was “Not Active” each time. The IC50 stood at 21.3 µM on Cytochrome P450 2C9 [2] and 3.4 µM at Cytochrome P450 1A2. Besides, the “log(1/IC50)” value at Cytochrome P450 1A2 worked out at 2.469.
Regarding `CC(C)(C)c1ccc(/C=C/C(=O)/C=C/c2ccc(C(C)(C)C)cc2)cc1`, the Activity entry at Cytochrome P450 3A4, at Cytochrome P450 2C9 [1], at Cytochrome P450 2B6 and at Cytochrome P450 2D6 was “Not Active” throughout. Further, the IC50 at Cytochrome P450 1A2 was found to be 28 µM. The “log(1/IC50)” value on Cytochrome P450 1A2 is given as 1.553.
Regarding `O=C(/C=C/c1ccc(C(F)(F)F)cc1)/C=C/c1ccc(C(F)(F)F)cc1`, the Activity entry on Cytochrome P450 3A4, on Cytochrome P450 2C9 [1], at Cytochrome P450 2B6 and at Cytochrome P450 2D6 was “Not Active” in each case. The IC50 on Cytochrome P450 1A2 came to 4 µM. Further, the “log(1/IC50)” value on Cytochrome P450 1A2 is on record as 2.398.
Take `O=C1/C(=C/c2ccc(C(F)(F)F)cc2)CC/C1=C\c1ccc(C(F)(F)F)cc1`: the Activity result at Cytochrome P450 3A4, at Cytochrome P450 2C9 [1], on Cytochrome P450 2B6 and at Cytochrome P450 2D6 was “Not Active” throughout.
Take `COc1ccc(/C=C2\CC/C(=C\c3ccc(OC)cc3)C2=O)cc1`: the Activity result at Cytochrome P450 3A4, at Cytochrome P450 2C9 [1], at Cytochrome P450 2B6 and at Cytochrome P450 2D6 was “Not Active” throughout.
Regarding `O=C1/C(=C/c2cccc(Cl)c2)CC/C1=C\c1cccc(Cl)c1`, the Activity result on Cytochrome P450 3A4, at Cytochrome P450 2C9 [1], at Cytochrome P450 2B6 and on Cytochrome P450 2D6 was “Not Active” throughout.

These data come from ChEMBL document CHEMBL1141678 (Eur J Med Chem, 2008).
